Source: paper PMC12501029, “Discovery of a CNS active GSK3 degrader using orthogonally reactive linker screening” (Nature Communications, 2025)

Legend:
[1] = Plasma protein binding, equilibrium dialysis, rat; format: in vitro ADME; conditions: male, Han Wistar, 5 h dialysis, read-out: Plasma Protein Binding (Fu) Rat
Method: A 96-well equilibrium dialysis apparatus was used to determine the free fraction in plasma for each compound (HT Dialysis LLC, Gales Ferry, CT). Membranes (12–14 kDA cut-off) were conditioned in deionised water for 60 min, followed by conditioning in 80:20 deionised water: ethanol for 20 min, and then rinsed in isotonic buffer before use. Female CD1 mouse, Male rat Han Wistar and human plasma was removed from the freezer and allowed to thaw on the day of experiment. Thawed plasma was then centrifuged (Allegra X12-R, Beckman Coulter, USA), spiked with test compound (final concentration 10 μg/mL), and 150 μL aliquots (n = 6 replicate determinations) loaded into the 96-well equilibrium dialysis plate. Dialysis vs isotonic buffer (150 μL) was carried out for 5 h in a temperature-controlled incubator at ca. 37 °C (Barworld Scientific Ltd, UK) using an orbital microplate shaker at 100 revolutions/minute (Barworld Scientific Ltd, UK). At the end of the incubation period, 50 μL aliquots of plasma or buffer were transferred to a 96-well 2.1 mL Waters ^TM plate and the composition in each well balanced with control fluid (50 μL), such that the volume of buffer to plasma is the same. […] All samples were analysed by UPLC-MS/MS. The unbound fraction was determined as the ratio of the peak area in buffer to that in plasma.

[2] = Cassette PK study with 22, 25 and 26; format: in vivo, female Balb/c mice; conditions: i.v. bolus cassette 0.5 mg/kg; for AUC(0-t) / clearance: female, Balb/c, mouse, iv, whole blood; for clearance: read-out: Cl_obs
Excerpt: Fifteen female mice of the Balb/c strain were obtained from Charles River Laboratories, UK. Animals were maintained under a 12-h light/12-h dark cycle, in Thoren mouse caging containing EC0 aspen bedding (DBM, UK), with 'Sizzlenest' and 'Rodent Rolls' nesting material (DBM). Enrichment materials included aspen chew sticks, cardboard houses, tunnels, swings, and sunflower seeds. All animals had ad libitum access to food (5LF2 Extruded Diet, IPS Ltd, UK) and tap water throughout. Temperature and relative humidity were maintained between 19 °C–24 °C and 45%–65%, respectively. All animals received a minimum of 10 days of acclimatisation prior to the start of the study.
The cassette formulation (22, 25 and 26) was prepared by producing separate stock solutions of each compound dissolved in DMSO (dimethyl sulfoxide) at a concentration of 6 mg/mL. Aliquots of each stock solution were combined in equal parts to produce a stock solution containing 2 mg/mL of each compound. This solution was then diluted with Polyethylene glycol 400 (PEG400), followed by drop-wise addition of sterile water. The final formulation consisted of 5% DMSO, 40% PEG400, and 55% water, and contained 0.1 mg/mL of each compound. For the cassette PK study, three female Balb/c mice were dosed via a bolus intravenous injection at a dose level of 0.5 mg/kg per compound (5 mL/kg). Serial blood samples (10 µL per sample) were collected from the lateral tail vein of each mouse at 5, 15 and 30 min, 1, 2, 4, 6, 8, and 24 h after dose administration. All blood samples were diluted into 90 µL of Milli‑Q ultrapure water and stored at −20 °C prior to bioanalysis. The concentration of 22, 25 and 26 in blood and brain was determined by UPLC-MS/MS.
Blood samples (10 µL) from study mice were diluted 1× with 90 µL of water immediately when the sample was taken. All calibration, quality control, blanks and double blank samples (all 100 µL volume) were mixed (vortexed) with 300 µL of LCMS grade acetonitrile to precipitate proteins.
For study samples, a volume (30 µL) was mixed (vortexed) with a volume (90 µL) of acetonitrile to precipitate proteins. After protein precipitation, all samples were centrifuged to pellet the proteins. Study samples in Micronics tubes were centrifuged using a Beckman Coutler Allegra C-12R Centrifuge for 10 min at 3750 rpm. All other samples in Eppendorf tubes were centrifuged using a Sigma SciQuip 1–14 centrifuge for 10 min (14,800 rpm/16,163 × g). Supernatant from study samples (80 µL) and calibration samples, QCs, blanks, and double blanks (200 µL) were then transferred to HPLC glass vials containing Milli-Q water (40 µL or 100 µL, respectively), ready for LCMS analysis.

Compound | fraction unbound at 5 h, 10 μg/mL [1] | AUC(0-t) [2] | clearance [2] | Cl_obs [2] | Half_Life [2] | Vss_obs [2]
Cn1nc(N2CCC(=O)NC2=O)c2ccc(CN3CCN(Cc4ccc(-c5cn(-c6ccc(-c7cn8nccc(C(=O)Nc9cnccc9N9CCOCC9)c8n7)cc6)nn5)nc4)CC3)cc21 [compound 24] | 0.00064 |  |  |  |  | 
O=C1CCC(NC(=O)c2ccc(CN3CCN(Cc4ccc(-c5cn(-c6ccc(-c7cn8nccc(C(=O)Nc9cnccc9N9CCOCC9)c8n7)cc6)nn5)nc4)CC3)cn2)C(=O)N1 (stereo not drawn) [compound 22] |  | 444 ng·h/mL | 12 mL/min/kg | moderate | 2.8 h | 2.8 L/kg
Cn1nc(N2CCC(=O)NC2=O)c2ccc(CN3CCN(CCCc4cn(-c5ccc(-c6cn7nccc(C(=O)Nc8cnccc8N8CCOCC8)c7n6)cc5)nn4)CC3)cc21 [compound 26] | 0.01 | 590 ng·h/mL | 8 mL/min/kg | moderate | 2.7 h | 1.9 L/kg
